Source: EP0256125A1, “MEANS FOR PREVENTING MICROBIOLOGICAL OVERGROWING OF HARD SURFACE” (priority 1985, dated 1987)

How the values were obtained:
[1] = prior art statement; cited from earlier work
Cladosporium resinae = assay: Fungicidal activity, inhibition of mycelium growth on wort agar; assay type: cell-based
Excerpt: (§1) Man prüfte die funguzide Aktivität von Zink-bis-(N-vi- nyloxyethyl)dithiocarbamat gegenüber den reinen Pilzkulturen: Gladosporium resinae, Cladosporium cladosporioides, Acremonium corvum, Acremonium charticola, Penicillium charlesii Smith, Walrotiela subiculesa, Geotrichum candidum Link, Oidium, Penicillium crysogenum. Die genannten Pilze wurden von den Oberflächen der Wände und Decken von Bierbrauereien und Werken für die Herstellung von alkoholfreien Getränken ausgeschieden.
(§2) […] In eine der Petri-Schalen wurde Nährboden mit 1 ml Azeton (Kontrolle) gegossen.
(§3) In 18 bis 20 Stunden nach dem Vergießen des Nährbodens in die Petri-Schalen führte man die Inokulation der reinen Pilzkultur durch, die vorher an einem Schräg-Würzeagar während 15 Tage gezüchtet wurden. Die Inkubation führte man bei einer Temperatur von 25 bis 27°C während 5 Tage durch. Danach wurde der Durchmesser der Pilzkolonien gemessen und der Prozentsatz der Hemmung des Wachstums des Myzeliums (S) nach der Abbott -Formel gezählt: [formula] worin dc Durchmesser der Pilzkolonien in Kontrolle ist, de =Durchmesser der Pilzkolonien in einer Schale mit dem Nährboden ist, der Zink-bis-(N-vinyloxyethyl)dithiocarbamat enthält.

Penicillium chrysogenum = assay: as above; assay type: cell-based
Excerpt: as §1, §2, §3

Acremonium charticola = assay: as above; assay type: cell-based
Excerpt: as §1, §2, §3

[2] = system: Penicillium charlesii Smith; assay: as above; assay type: cell-based
Excerpt: as §1, §2, §3

Geotrichum candidum Link = assay: as above; assay type: cell-based
Excerpt: as §1, §2, §3

Walrotiela subiculesa = assay: as above; assay type: cell-based
Excerpt: as §1, §2, §3

[3] = system: Cladosporium cladosporioides; assay: as above; assay type: cell-based
Excerpt: as §1, §2, §3

Acremonium corvum = assay: as above; assay type: cell-based
Excerpt: as §1, §2, §3

Oidium = assay: as above; assay type: cell-based
Excerpt: as §1, §2, §3

[4] = Solubility in solvents (qualitative)
weißen Mäusen = assay: Acute toxicity in white mice; settings: result in words
[5] = Acute toxicity in white mice; settings: mouse, in vivo, ip
[6] = Storage stability (qualitative); assay type: physicochemical; settings: result in words
[7] = Konzentration des Stoffes 0,0015 %
[8] = Konzentration des Stoffes 0,003 %
[9] = Konzentration des Stoffes 0,006 %
[10] = Konzentration des Stoffes 0,012 %

CCCCCCCCn1sccc1=O [2-n-Oktyl-4-isothiazolinon-3]
effektive Konzentration als Biozid für Lack- und Farbstoffe [1]: 0,4 Masse%

C=COCCNC(=S)[S-].[Na+] [Natrium-N-(vinyloxyethyl)dithiocarbamat]
Hemmung des Myzeliums am 5. Tag des Wachstums, Cladosporium resinae (Cladosporium resinae; [7]): 100% | Hemmung des Myzeliums am 5. Tag des Wachstums, Cladosporium resinae (Cladosporium resinae; [8]): 100% | Hemmung des Myzeliums am 5. Tag des Wachstums, Cladosporium resinae (Cladosporium resinae; [9]): 100% | Hemmung des Myzeliums am 5. Tag des Wachstums, Cladosporium resinae (Cladosporium resinae; [10]): 100% | Hemmung des Myzeliums am 5. Tag des Wachstums, Penicillium chrysogenum (Penicillium chrysogenum; [7]): 5% | Hemmung des Myzeliums am 5. Tag des Wachstums, Penicillium chrysogenum (Penicillium chrysogenum; [8]): 20% | Hemmung des Myzeliums am 5. Tag des Wachstums, Penicillium chrysogenum (Penicillium chrysogenum; [9]): 80% | Hemmung des Myzeliums am 5. Tag des Wachstums, Penicillium chrysogenum (Penicillium chrysogenum; [10]): 100% | Hemmung des Myzeliums am 5. Tag des Wachstums, Acremonium charticola (Acremonium charticola; [7]): 100% | Hemmung des Myzeliums am 5. Tag des Wachstums, Acremonium charticola (Acremonium charticola; [8]): 100% | Hemmung des Myzeliums am 5. Tag des Wachstums, Acremonium charticola (Acremonium charticola; [9]): 100% | Hemmung des Myzeliums am 5. Tag des Wachstums, Acremonium charticola (Acremonium charticola; [10]): 100% | Hemmung des Myzeliums am 5. Tag des Wachstums, Penicillium charlesii Smith [2, 7]: 25% | Hemmung des Myzeliums am 5. Tag des Wachstums, Penicillium charlesii Smith [2, 8]: 40% | Hemmung des Myzeliums am 5. Tag des Wachstums, Penicillium charlesii Smith [2, 9]: 90% | Hemmung des Myzeliums am 5. Tag des Wachstums, Penicillium charlesii Smith [2, 10]: 100% | Hemmung des Myzeliums am 5. Tag des Wachstums, Geotrichum candidum Link (Geotrichum candidum Link; [7]): 5% | Hemmung des Myzeliums am 5. Tag des Wachstums, Geotrichum candidum Link (Geotrichum candidum Link; [8]): 40% | Hemmung des Myzeliums am 5. Tag des Wachstums, Geotrichum candidum Link (Geotrichum candidum Link; [9]): 75% | Hemmung des Myzeliums am 5. Tag des Wachstums, Geotrichum candidum Link (Geotrichum candidum Link; [10]): 100% | Hemmung des Myzeliums am 5. Tag des Wachstums, Walrotiela subiculesa (Walrotiela subiculesa; [7]): 100% | Hemmung des Myzeliums am 5. Tag des Wachstums, Walrotiela subiculesa (Walrotiela subiculesa; [8]): 100% | Hemmung des Myzeliums am 5. Tag des Wachstums, Walrotiela subiculesa (Walrotiela subiculesa; [9]): 100% | Hemmung des Myzeliums am 5. Tag des Wachstums, Walrotiela subiculesa (Walrotiela subiculesa; [10]): 100% | Hemmung des Myzeliums am 5. Tag des Wachstums, Cladosporium cladosporioides [3, 7]: 100% | Hemmung des Myzeliums am 5. Tag des Wachstums, Cladosporium cladosporioides [3, 8]: 100% | Hemmung des Myzeliums am 5. Tag des Wachstums, Cladosporium cladosporioides [3, 9]: 100% | Hemmung des Myzeliums am 5. Tag des Wachstums, Cladosporium cladosporioides [3, 10]: 100% | Hemmung des Myzeliums am 5. Tag des Wachstums, Acremonium corvum (Acremonium corvum; [7]): 100% | Hemmung des Myzeliums am 5. Tag des Wachstums, Acremonium corvum (Acremonium corvum; [8]): 100% | Hemmung des Myzeliums am 5. Tag des Wachstums, Acremonium corvum (Acremonium corvum; [9]): 100% | Hemmung des Myzeliums am 5. Tag des Wachstums, Acremonium corvum (Acremonium corvum; [10]): 100% | Hemmung des Myzeliums am 5. Tag des Wachstums, Oidium (Oidium; [7]): 60% | Hemmung des Myzeliums am 5. Tag des Wachstums, Oidium (Oidium; [8]): 100% | Hemmung des Myzeliums am 5. Tag des Wachstums, Oidium (Oidium; [9]): 100% | Hemmung des Myzeliums am 5. Tag des Wachstums, Oidium (Oidium; [10]): 100% | Löslichkeit im Alkohol ([4]; Alkohol (Ethylalkohol)): teilweise | Löslichkeit im Azeton ([4]; Azeton): teilweise | Löslichkeit im Diethylether ([4]; Diethylether): unlöslich | Löslichkeit in Wasser ([4]; Wasser): gut löslich | Toxizität für Warmblüter (weißen Mäusen): wenig toxisch | LD50 [5]: 260 mg/kg | Lagerbeständigkeit [6]: lagerbeständig
